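Assay format: 96-well plates, 48-hour exposure. GI50 = concentration required for 50% inhibition of growth. TGI marks complete inhibition of growth.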
Tests used:
Assay in all cases: inhibition of tumour cell growth, NCI panel, 48 h
[1] = test system: 786-0 renal
[2] = test system: A549 NSCLC
[3] = test system: ACHN renal
[4] = test system: CAKI-1 renal
[5] = test system: IGROV1 ovarian
[6] = test system: MOLT-4 leukemia
[7] = test system: SF-268 CNS
[8] = test system: RXF 393 renal

| SMILES | TGI [1] | TGI [2] | TGI [3] | TGI [4] | TGI [5] | TGI [6] | TGI [7] | TGI [8] | GI50 [1] | GI50 [2] | GI50 [5] | GI50 [6] | GI50 [8] | GI50 [7] | GI50 [3] | GI50 [4] |
| --- | --- | --- | --- | --- | --- | --- | --- | --- | --- | --- | --- | --- | --- | --- | --- | --- |
| CCOC(=O)C(=O)CC1=Nc2ccccc2SC(c2cccc(C)c2)C1 (stereo not given) | 32.4 µM | 50.8 µM | 30.3 µM | 54 µM | 35.7 µM | 47.9 µM | 32.2 µM |  |  |  |  |  |  |  |  |  |
| CC1=C(/C=C/C(C)=C/C2CC(N(C)C)=CC(=O)O2)C(C)(C)CCC1 (stereo not given) | 29.2 µM | 22.3 µM | 24.8 µM | 37.1 µM | 29 µM | 19.9 µM | 40.6 µM | 31.1 µM |  |  |  |  |  |  |  |  |
| CC(=O)[O-].Cn1ccnc1CNCc1nccn1C.[Cu+2].[O-][Cl+3]([O-])([O-])[O-] | > 100 µM | > 100 µM |  |  | > 100 µM | > 100 µM | > 100 µM | > 100 µM | > 100 µM | > 100 µM | > 100 µM | > 100 µM | > 100 µM | > 100 µM |  |  |
| c1ccc(C2OC3(CCC[C@H]4C[C@H]43)O[C@H]2c2ccccc2)cc1 (stereo not given in full) | > 100 µM | > 100 µM | > 100 µM | 74.7 µM | > 100 µM | 63.9 µM | > 100 µM | 79 µM |  |  |  |  |  |  |  |  |
| C[CH2][Ge]([CH2]C)([CH2]C)[O]C(=O)C(OC(C)=O)c1ccccc1 (stereo not given) | > 100 µM | > 100 µM | > 100 µM | > 100 µM | > 100 µM |  | > 100 µM |  | > 100 µM | > 100 µM | > 100 µM |  |  | > 100 µM | > 100 µM | > 100 µM |
| CN(C)CCNC(=O)c1cccc2cc3c(Cl)cccc3nc12 | > 20.2 µM | 9.35 µM | 2.35 µM | > 21.8 µM | 6.96 µM | 0.556 µM |  | 3.62 µM |  |  |  |  |  |  |  |  |
| CC(=O)Nc1c(Nc2ccccc2)[nH]c(C)nc1=S | > 100 µM | > 100 µM | > 100 µM | > 100 µM | > 100 µM | > 100 µM | > 100 µM | > 100 µM |  |  |  |  |  |  |  |  |
| O=C(O)[C@H](NS(=O)(=O)c1ccc(F)cc1)c1ccccc1 | > 100 µM | > 100 µM | > 100 µM | > 100 µM | > 100 µM | > 100 µM | > 100 µM | > 100 µM |  |  |  |  |  |  |  |  |
| COc1ccc2c3c([nH]c2c1[N+](=O)[O-])C(C)N(Cc1ccccc1)CC3 (stereo not given) | > 100 µM | > 100 µM | > 100 µM | > 100 µM | 30.9 µM | 23.4 µM | 5.83 µM | 17.9 µM |  |  |  |  |  |  |  |  |
| N#C/C(=C/c1ccc2c(c1)OCO2)C(=O)c1ccccc1 | > 100 µM | > 100 µM | > 100 µM | > 100 µM | > 100 µM | > 100 µM | > 100 µM |  |  |  |  |  |  |  |  |  |
| N/C(=N\N=C\c1ccc(C(F)(F)F)cc1)NO | 37.7 µM | 59.2 µM | 25.6 µM | 38.1 µM | 33.2 µM |  | 61 µM | > 100 µM |  |  |  |  |  |  |  |  |
| Cc1cccc(C)c1NC(=O)C1=NC(=S)NC(c2ccccc2)C1c1nc2ccccc2s1 (stereo not given) | > 100 µM | > 100 µM | > 100 µM | > 100 µM | > 100 µM | > 100 µM | > 100 µM | > 100 µM |  |  |  |  |  |  |  |  |
| COCN1COCN=C1NC#N | > 100 µM | > 100 µM | > 100 µM | > 100 µM | > 100 µM | > 100 µM | > 100 µM | > 100 µM |  |  |  |  |  |  |  |  |
| O=C1N2Cc3c4ccc5c3CN3C(=O)N6Cc7c(ccc(c7CN1C6(c1ccccc1)C23c1ccccc1)OCCOCCNCCOCCO4)OCCOCCNCCOCCO5 (stereo not given) | 97.4 µM | > 100 µM | 47.9 µM | > 100 µM | > 100 µM | > 100 µM | > 100 µM | > 100 µM |  |  |  |  |  |  |  |  |
| COC(=O)C1Cc2c(n(C)c3ccccc23)C(CCC(=O)O)N1Cc1ccccc1 (stereo not given) | > 100 µM | > 100 µM | 81.8 µM | > 100 µM | > 100 µM | > 100 µM | 69.9 µM | 89.7 µM |  |  |  |  |  |  |  |  |
| O=S(=O)(O)c1cc(O)c(N=Nc2ccc(O)cc2O)c2ccccc12 | > 100 µM | > 100 µM | > 100 µM | > 100 µM | > 100 µM | > 100 µM | > 100 µM | > 100 µM |  |  |  |  |  |  |  |  |
| O=[N+]([O-])C=C(c1ccc(Cl)cc1)c1ccc(Cl)cc1 | 30.6 µM | 46.7 µM | 30.5 µM | 37.7 µM | 48.1 µM | 56.9 µM |  | 33.5 µM |  |  |  |  |  |  |  |  |
| O=C1C(c2ccc(Br)cc2)=[N+]([O-])c2ccccc21 | 30.9 µM | 41.2 µM | 26.2 µM |  | 33.8 µM | 26.6 µM | 32.3 µM | 31.4 µM |  |  |  |  |  |  |  |  |
| CN(c1ccc(C(=O)c2ccc(N(C)S(C)(=O)=O)cc2)cc1)S(C)(=O)=O | > 100 µM | > 100 µM | > 100 µM | > 100 µM |  | > 100 µM | > 100 µM |  |  |  |  |  |  |  |  |  |
| Cc1cc2c(C)n(Cc3ccccc3Cl)nc2c(C(=O)O)c1C | > 100 µM | > 100 µM | > 100 µM |  | > 100 µM | > 100 µM | > 100 µM | > 100 µM |  |  |  |  |  |  |  |  |
| COC(=O)N/N=C(\C)c1c(O)cc(C)oc1=O | > 100 µM | > 100 µM | > 100 µM |  | > 100 µM | > 100 µM | > 100 µM |  |  |  |  |  |  |  |  |  |
